Data reported in article PMC5321434, “Dihydrobenz[e][1,4]oxazepin-2(3H)-ones, a new anthelmintic chemotype immobilising whipworm and reducing infectivity in vivo” (PLoS Neglected Tropical Diseases, 2017).

Tested on: adult T. muris
Experiment: Ex vivo adult T. muris automated motility assay (primary/secondary screen at 100 μM and dose-response)
Parameters: species or system Trichuris muris
Details: for PRIMARY_SCREEN_MINUS_LOG_FOLD_CHANGE_MOVEMENT: primary screen; for PRIMARY_SCREEN_MINUS_LOG_FOLD_CHANGE_MOVEMENT / SECONDARY_SCREEN_MINUS_LOG_FOLD_CHANGE_MOVEMENT: adult T. muris motility; for SECONDARY_SCREEN_MINUS_LOG_FOLD_CHANGE_MOVEMENT: secondary screen
Summary of the method: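 Motility scored after 24 h (37 °C, 5% CO2) by automated imaging of pixel intensity variance, one worm per well, four weekly biological replicates. Worms came from SCID mice infected orally with 200 eggs, harvested day 35; screening at 100 μM final in RPMI-1640/antibiotics, 1% DMSO; curves fitted with four-parameter log-logistic model.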

[1] = combined primary and secondary screen minus log fold change in movement, adult T. muris, 100 μM
[2] = adult T. muris motility screen at 100 μM, combines primary and secondary screen minus log fold change in movement (mean where both are given)

SMILES | COMBINED_SCREEN_ACTIVITY [1] | PRIMARY_SCREEN_MINUS_LOG_FOLD_CHANGE_MOVEMENT (100 μM) | SECONDARY_SCREEN_MINUS_LOG_FOLD_CHANGE_MOVEMENT (100 μM) | COMBINED_SCREEN_ACTIVITY [2]
COc1ccc(-c2ccc3c(c2)N(CCc2ccccc2)C(=O)COC3)cc1OC [Compound 171] | 7.742 | 7.742 |  | 
O=C1COCc2ccc(-c3cc(F)cc(Cl)c3)cc2N1CCN1CCOCC1 [Compound 176] | -1.404 | -1.404 |  | 
COCCN1C(=O)COCc2ccc(-c3cccc(C(F)(F)F)c3)cc21 [Compound 108] | -0.2552 | -0.2552 |  | 
COc1cccc(CN2C(=O)COCc3cc(-c4cccc(O)c4)ccc32)c1 [Compound 126] | 1.18 | 1.18 |  | 
Cc1ccccc1-c1cccc2c1COCC(=O)N2C [Compound 8] | -0.9498 | -0.9498 |  | 
CN1C(=O)COCc2c(-c3cccc(O)c3)cccc21 [Compound 9] | -1.134 | -1.134 |  | 
Cn1cc(-c2ccc3c(c2)N(Cc2ccc(C(F)(F)F)cc2)C(=O)COC3)cn1 [Compound 166] | 11.5841 | 10.5493 | 12.6188 | 
CN1C(=O)COCc2cc(-c3cccc(C#N)c3)ccc21 [Compound 10] | -1.704 | -1.704 |  | 
CC(C)N1C(=O)COCc2cc(Br)ccc21 [Compound 17] | -0.6442 | -0.6442 |  | 
Cn1cc(-c2ccc3c(c2)COCC(=O)N3Cc2ccc(C(F)(F)F)cc2)cn1 [Compound 165] | 10.5493 | 10.5493 |  | 
O=C1COCc2cc(Br)ccc2N1CCc1ccccc1 [Compound 79] | -0.767 | -0.767 |  | 
CC(=O)Nc1cccc(-c2ccc3c(c2)N(Cc2cc(F)cc(F)c2)C(=O)COC3)c1 [Compound 185] |  | 10.5493 | 2.906 | 6.728
COc1ccc(F)cc1-c1ccc2c(c1)N(CCN1CCOCC1)C(=O)COC2 [Compound 162] | -1.305 | -1.305 |  | 
COCCN1C(=O)COCc2ccc(-c3ccc(F)cc3OC)cc21 [Compound 77] | 0.2033 | 0.2033 |  | 
COc1ccc(-c2ccc3c(c2)N(Cc2ccccc2Cl)C(=O)COC3)cn1 [Compound 153] | 0.2455 | 0.2455 |  | 
O=C1COCc2cc(Br)ccc2N1CC1CCCCC1 [Compound 64] | 3.118 | 3.494 | 2.742 | 
COCCN1C(=O)COCc2cc(Br)ccc21 [Compound 30] | 0.3958 | 0.3958 |  | 
COc1ccc(-c2ccc3c(c2)N(CC2CC2)C(=O)COC3)cn1 [Compound 44] | -1.021 | -1.021 |  | 
O=C1COCc2ccc(-c3cccc(O)c3)cc2N1Cc1ccccc1Cl [Compound 133] | -0.006244 | -0.006244 |  | 
O=C1COCc2ccc(-c3cccc(O)c3)cc2N1CCc1ccccc1 [Compound 99] | -1.58 | -1.58 |  | 
COc1ccccc1-c1ccc2c(c1)N(CCN1CCOCC1)C(=O)COC2 [Compound 136] | -0.8162 | -0.8162 |  | 

SMILES | COMBINED_SCREEN_ACTIVITY [1] | PRIMARY_SCREEN_MINUS_LOG_FOLD_CHANGE_MOVEMENT (100 μM) | SECONDARY_SCREEN_MINUS_LOG_FOLD_CHANGE_MOVEMENT (100 μM) | COMBINED_SCREEN_ACTIVITY [2]
COc1ccc(F)cc1-c1ccc2c(c1)COCC(=O)N2CCc1ccccc1 [Compound 145] | -1.739 | -1.739 |  | 
COc1ccccc1-c1ccc2c(c1)COCC(=O)N2CCN1CCOCC1 [Compound 135] | -1.035 | -1.035 |  | 
O=C1COCc2ccc(-c3cccnc3)cc2N1CC1CCCCC1 [Compound 61] | 11.7341 | 10.8493 | 12.6188 | 
O=C1COCc2ccc(-c3ccccc3)cc2N1CCN1CCOCC1 [Compound 85] | 0.2067 | 0.2067 |  | 
COc1ccccc1-c1ccc2c(c1)COCC(=O)N2Cc1ccccc1 [Compound 95] | -1.179 | -1.179 |  | 
O=C1COCc2cc(-c3cccc(O)c3)ccc2N1Cc1ccc2c(c1)OCO2 [Compound 140] | -0.481 | -0.481 |  | 
COc1ccccc1-c1ccc2c(c1)N(CC1CC1)C(=O)COC2 [Compound 42] | 1.209 | 1.209 |  | 
COCc1cccc(-c2ccc3c(c2)N(CCN2CCOCC2)C(=O)COC3)c1 [Compound 158] | -1.5946 | -1.5946 |  | 
COc1ccccc1-c1ccc2c(c1)N(CCc1ccccc1)C(=O)COC2 [Compound 121] | 1.0336 | 1.0336 |  | 
COc1ccc(-c2ccc3c(c2)N(Cc2ccccc2)C(=O)COC3)cc1 [Compound 100] | 3.027 | 3.027 |  | 
COc1cc(F)ccc1-c1ccc2c(c1)N(CC1CC1)C(=O)COC2 [Compound 70] | 11.6216 | 10.6243 | 12.6188 | 
O=C1COCc2ccc(-c3cccc(C(F)(F)F)c3)cc2N1CCN1CCOCC1 [Compound 184] | -1.964 | -1.964 |  | 
CN1C(=O)COCc2c(-c3cc(F)cc(Cl)c3)cccc21 [Compound 34] | -1.392 | -1.392 |  | 
COc1ccccc1-c1ccc2c(c1)COCC(=O)N2Cc1ccccc1Cl [Compound 150] | -1.328 | -1.328 |  | 
CCCN1C(=O)COCc2cc(Br)ccc21 [Compound 16] | -2.129 | -2.129 |  | 
O=C1COCc2ccc(-c3cccnc3)cc2N1Cc1cc(F)cc(F)c1 [Compound 110] | -0.9208 | -0.9208 |  | 
COCCN1C(=O)COCc2ccc(-c3ccccc3OC)cc21 [Compound 45] | -1.409 | -1.409 |  | 
O=C1COCc2ccc(-c3cccnc3)cc2N1CCN1CCOCC1 [Compound 86] | -1.564 | -1.564 |  | 
Cn1cc(-c2ccc3c(c2)N(CC2CCCCC2)C(=O)COC3)cn1 [Compound 68] | -0.9119 | -0.9119 |  | 
CN(C)C(=O)c1ccc(CN2C(=O)COCc3cc(-c4ccc5c(c4)OCO5)ccc32)cc1 [Compound 192] |  | 10.5493 |  | 10.5493
O=C1COCc2ccc(-c3cccc(CO)c3)cc2N1CC1CC1 [Compound 41] | -1.108 | -1.108 |  | 
